The values below come from patent publication EP4603105A1, “PHARMACEUTICAL COMPOSITION CONTAINING CYCLIC COMPOUND HAVING SELECTIVE KRAS INHIBITORY EFFECT AGAINST HRAS AND NRAS” (CHUGAI SEIYAKU KABUSHIKI KAISHA, priority 2022, dated 2024).

SMILES strings stand for the structures.

The target in test [1] is GDP-bound NRAS wild-type protein (Homo sapiens, UniProt P01111). The test can be described thus: Binding to NRAS by surface plasmon resonance (SPR), KD and KD ratio to KRAS. To be noted: ratio of KD for GDP-bound NRAS wild-type protein to KD for KRAS. In outline:
(§1)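 Single-cycle kinetics on GDP-loaded biotin-Avi RAS captured to ~100–300 RU; 75 s ascending injections, 100 µL/min, 30°C. HBS pH 7.4 + 10 mM MgCl2/10 µM GDP/4% DMSO. 1:1 fit, KD.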

The target of a further test is HRAS wild-type protein (Homo sapiens, UniProt P01112). The test can be described thus: Binding to HRAS by surface plasmon resonance (SPR), KD and KD ratio to KRAS. To be noted: ratio of KD for HRAS wild-type protein to KD for KRAS. In outline: as §1
Sequence of HRAS wild-type protein (P01112 whole entry): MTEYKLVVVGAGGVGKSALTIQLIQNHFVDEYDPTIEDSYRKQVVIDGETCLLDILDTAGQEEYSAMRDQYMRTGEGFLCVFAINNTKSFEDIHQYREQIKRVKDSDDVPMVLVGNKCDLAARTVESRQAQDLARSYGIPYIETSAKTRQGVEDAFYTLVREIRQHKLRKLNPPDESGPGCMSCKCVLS
The subject of test [2] is human lung cancer strain NCI-H441. In kind it is cell-based. In outline:
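Proliferation was scored by […] measured after the reagent was added to cultures kept at 37°C in 5% carbon dioxide.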

Sequence of GDP-bound NRAS wild-type protein (P01111 whole entry): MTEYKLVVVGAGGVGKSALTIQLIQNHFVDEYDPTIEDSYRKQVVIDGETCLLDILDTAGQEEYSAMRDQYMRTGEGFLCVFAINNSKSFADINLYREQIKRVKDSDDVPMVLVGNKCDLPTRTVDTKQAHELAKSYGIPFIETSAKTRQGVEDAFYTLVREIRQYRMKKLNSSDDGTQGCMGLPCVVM

For `CCO[C@@H]1C[C@H]2C(=O)NC3(CCCC3)C(=O)N(C)[C@@H](C3CCCC3)C(=O)N(C)[C@H](C)CC(=O)N(C)[C@@H](CC(C)C)C(=O)N[C@@H]([C@@H](C)CC)C(=O)N(C)CC(=O)N(C)[C@H]3C/C=C\CCN(C3=O)[C@@H](Cc3ccc(C(F)(F)F)cc3)C(=O)N(C)CC(=O)N[C@@H](CCc3cc(F)c(C(F)(F)F)c(F)c3)C(=O)N2C1` [PP1096], the “NRAS /KRAS” value in test [1] was “B (a compound having 3 or more and less than 10 is denoted as B)”. On HRAS wild-type protein, the “HRAS /KRAS” value is “B (a compound having 3 or more and less than 10 is denoted as B)”. In test [2], this molecule came in with an IC50 of 38.1 nM.

With `CCO[C@@H]1C[C@H]2C(=O)NC3(CCC3)C(=O)N(C)[C@@H](C3CCCC3)C(=O)N3CCC[C@@H]3CC(=O)N(C)[C@@H](CC)C(=O)N[C@@H]([C@@H](C)CC)C(=O)N(C)CC(=O)N(C)[C@H]3C/C=C\CCN(C3=O)[C@@H](Cc3ccc(C(F)(F)F)cc3)C(=O)N(C)CC(=O)N[C@@H](CCc3cc(F)c(C(F)(F)F)c(F)c3)C(=O)N2C1` [PP1097], in test [1], the “NRAS /KRAS” value is “B (a compound having 3 or more and less than 10 is denoted as B)”. For the same molecule, the “HRAS /KRAS” value at HRAS wild-type protein is “B (a compound having 3 or more and less than 10 is denoted as B)”. Besides, half-maximal inhibition in test [2] (IC50) was put at 10.2 nM.

With `CCO[C@@H]1C[C@H]2C(=O)NC3(CCC3)C(=O)N(C)[C@@H](C3CCCC3)C(=O)N[C@H](C)CC(=O)N(C)[C@@H](CC)C(=O)N[C@@H]([C@@H](C)CC)C(=O)N(C)CC(=O)N(C)[C@H]3C/C=C\CCN(C3=O)[C@@H](Cc3ccc(C(F)(F)F)cc3)C(=O)N(C)CC(=O)N[C@@H](CCc3cc(F)c(C(F)(F)F)c(F)c3)C(=O)N2C1` [PP1098], in test [1], the “NRAS /KRAS” value was “B (a compound having 3 or more and less than 10 is denoted as B)”. On HRAS wild-type protein, the “HRAS /KRAS” value is “B (a compound having 3 or more and less than 10 is denoted as B)”. Besides, the IC50 in test [2] is 101 nM.

As to `CC[C@H](C)[C@@H]1NC(=O)[C@H](CC)N(C)C(=O)C[C@@H](C)N(C)C(=O)[C@H](C2CCCC2)N(C)C(=O)C2(CCCC2)NC(=O)[C@@H]2CCCN2C(=O)[C@H](CCc2cc(F)c(C(F)(F)F)c(F)c2)NC(=O)CN(C)C(=O)[C@H](Cc2ccc(C(F)(F)F)cc2)N2CC/C=C\C[C@@H](C2=O)N(C)C(=O)CN(C)C1=O` [PP1101], the “NRAS /KRAS” value in test [1] is “B (a compound having 3 or more and less than 10 is denoted as B)”. On HRAS wild-type protein, the “HRAS /KRAS” value was “B (a compound having 3 or more and less than 10 is denoted as B)”. The same molecule gave an IC50 in test [2] of 68.4 nM.

With `CC[C@H](C)[C@@H]1NC(=O)[C@H](CC(C)C)N(C)C(=O)C[C@@H](C)N(C)C(=O)[C@H](C2CCCC2)N(C)C(=O)C2(CCCC2)NC(=O)[C@@H]2CCCN2C(=O)[C@H](CCc2cc(F)c(C(F)(F)F)c(F)c2)NC(=O)CN(C)C(=O)[C@H](Cc2ccc(C(F)(F)F)cc2)N2CC/C=C\C[C@@H](C2=O)N(C)C(=O)CN(C)C1=O` [PP1102], in test [1], the “NRAS /KRAS” value is “B (a compound having 3 or more and less than 10 is denoted as B)”. Also, at HRAS wild-type protein, the “HRAS /KRAS” value is “A (a compound having 10 or more and less than 20 is denoted as A)”. In test [2], this molecule showed an IC50 of 83.1 nM.

Take `CC[C@H](C)[C@@H]1NC(=O)[C@H](C)N(C)C(=O)C[C@@H](C(=O)N(C)C)N(C)C(=O)[C@H](C2CCCC2)N(C)C(=O)C2(CCC2)NC(=O)[C@@H]2CC(F)(F)CN2C(=O)[C@H](CCc2cc(F)c(C(F)(F)F)c(F)c2)NC(=O)CN(C)C(=O)[C@H](Cc2ccc(C(F)(F)F)cc2)N2CC/C=C\C[C@@H](C2=O)N(C)C(=O)CN(C)C1=O` [PP1103]: the “NRAS /KRAS” value in test [1] is “A (a compound having 10 or more and less than 20 is denoted as A)”. Also, the “HRAS /KRAS” value on HRAS wild-type protein is “B (a compound having 3 or more and less than 10 is denoted as B)”. In test [2], the IC50 is 34.8 nM.

With `CCO[C@@H]1C[C@H]2C(=O)NC3(CCCC3)C(=O)N(C)[C@@H](C3CCCC3)C(=O)N(C)[C@H](C(=O)N(C)C)CC(=O)N(C)[C@@H](C)C(=O)N[C@@H]([C@@H](C)CC)C(=O)N(C)CC(=O)N(C)[C@H]3C/C=C\CCN(C3=O)[C@@H](Cc3ccc(C(F)(F)F)cc3)C(=O)N(C)CC(=O)N[C@@H](CCc3cc(F)c(C(F)(F)F)c(F)c3)C(=O)N2C1` [PP1104], the “NRAS /KRAS” value in test [1] is “A (a compound having 10 or more and less than 20 is denoted as A)”. For the same molecule, on HRAS wild-type protein, the “HRAS /KRAS” value was “A (a compound having 10 or more and less than 20 is denoted as A)”. In test [2], the 50% inhibitory concentration (IC50) was determined as 44.6 nM.

`CC[C@H](C)[C@@H]1NC(=O)[C@H](CC)N(C)C(=O)C[C@@H](C(=O)N(C)C)N(CC)C(=O)[C@H](C2CCCC2)N(C)C(=O)C2(CCC2)NC(=O)[C@@H]2CCCN2C(=O)[C@H](CCc2cc(F)c(C(F)(F)F)c(F)c2)NC(=O)CN(C)C(=O)[C@H](Cc2ccc(C(F)(F)F)cc2)N2CC/C=C\C[C@@H](C2=O)N(C)C(=O)CN(C)C1=O` [PP1106]: the “NRAS /KRAS” value in test [1] is “A (a compound having 10 or more and less than 20 is denoted as A)”. Moreover, the “HRAS /KRAS” value on HRAS wild-type protein was “A (a compound having 10 or more and less than 20 is denoted as A)”. Further, the half-maximal inhibitory concentration (IC50) in test [2] worked out at 155 nM.

In the case of `CCO[C@@H]1C[C@H]2C(=O)NC3(CCC3)C(=O)N(C)[C@@H](C3CCCC3)C(=O)N(C)[C@H](C(=O)N(C)C)CC(=O)N(C)[C@@H](CC(C)C)C(=O)N[C@@H]([C@@H](C)CC)C(=O)N(C)CC(=O)N(C)[C@H]3C/C=C\CCN(C3=O)[C@@H](Cc3ccc(C(F)(F)F)cc3)C(=O)N(C)CC(=O)N[C@@H](CCc3cc(F)c(C(F)(F)F)c(F)c3)C(=O)N2C1` [PP1107], in test [1], the “NRAS /KRAS” value was “A (a compound having 10 or more and less than 20 is denoted as A)”. Also, at HRAS wild-type protein, the “HRAS /KRAS” value is “A (a compound having 10 or more and less than 20 is denoted as A)”. The molecule further gave an IC50 in test [2] of 5.4 nM.

On to `CCO[C@@H]1C[C@H]2C(=O)NC3(CCC3)C(=O)N(C)[C@@H](C3CCCC3)C(=O)N(C)[C@H](C(=O)N(C)C)CC(=O)N(C)[C@@H](C)C(=O)N[C@@H]([C@@H](C)CC)C(=O)N(C)CC(=O)N(C)[C@H]3C/C=C\CCN(C3=O)[C@@H](Cc3ccc(C(F)(F)F)cc3)C(=O)N(C)CC(=O)N[C@@H](CCc3cc(F)c(C(F)(F)F)c(F)c3)C(=O)N2C1` [PP1108], for which the “NRAS /KRAS” value in test [1] is “A (a compound having 10 or more and less than 20 is denoted as A)”. In addition, the “HRAS /KRAS” value on HRAS wild-type protein is “A (a compound having 10 or more and less than 20 is denoted as A)”. This molecule also showed an IC50 in test [2] of 28.3 nM.

On to `CCO[C@@H]1C[C@H]2C(=O)NC3(CCC3)C(=O)N(C)[C@@H](C3CCCC3)C(=O)N(C)[C@H](C(=O)N(C)C)CC(=O)N(C)[C@@H](C(C)C)C(=O)N[C@@H]([C@@H](C)CC)C(=O)N(C)CC(=O)N(C)[C@H]3C/C=C\CCN(C3=O)[C@@H](Cc3ccc(C(F)(F)F)cc3)C(=O)N(C)CC(=O)N[C@@H](CCc3cc(F)c(C(F)(F)F)c(F)c3)C(=O)N2C1` [PP1109], for which, in test [1], the “NRAS /KRAS” value is “A (a compound having 10 or more and less than 20 is denoted as A)”. On HRAS wild-type protein, the “HRAS /KRAS” value is “B (a compound having 3 or more and less than 10 is denoted as B)”. The molecule further came in with an IC50 in test [2] of 17 nM.

For the molecule `CCC[C@H]1C(=O)N[C@@H]([C@@H](C)CC)C(=O)N(C)CC(=O)N(C)[C@H]2C/C=C\CCN(C2=O)[C@@H](Cc2ccc(C(F)(F)F)cc2)C(=O)N(C)CC(=O)N[C@@H](CCc2cc(F)c(C(F)(F)F)c(F)c2)C(=O)N2C[C@H](OCC)C[C@H]2C(=O)NC2(CCC2)C(=O)N(C)[C@@H](C2CCCC2)C(=O)N(C)[C@H](C(=O)N(C)C)CC(=O)N1C` [PP1110], in test [1], the “NRAS /KRAS” value was “A (a compound having 10 or more and less than 20 is denoted as A)”. The “HRAS /KRAS” value at HRAS wild-type protein was “B (a compound having 3 or more and less than 10 is denoted as B)”. The same molecule yielded a half-inhibitory concentration (IC50) in test [2] of 11.2 nM.

As for `CCO[C@@H]1C[C@H]2C(=O)NC3(CCC3)C(=O)N(C)[C@@H](C3CCCC3)C(=O)N(C)[C@H](C(=O)N(C)C)CC(=O)N(C)[C@@H](CC3CC3)C(=O)N[C@@H]([C@@H](C)CC)C(=O)N(C)CC(=O)N(C)[C@H]3C/C=C\CCN(C3=O)[C@@H](Cc3ccc(C(F)(F)F)cc3)C(=O)N(C)CC(=O)N[C@@H](CCc3cc(F)c(C(F)(F)F)c(F)c3)C(=O)N2C1` [PP1111], the “NRAS /KRAS” value in test [1] was “A (a compound having 10 or more and less than 20 is denoted as A)”. For the same molecule, the “HRAS /KRAS” value at HRAS wild-type protein was “A (a compound having 10 or more and less than 20 is denoted as A)”. In test [2], half-maximal inhibition (IC50) required 13 nM.

For the molecule `CCO[C@@H]1C[C@H]2C(=O)NC3(CCC3)C(=O)N(C)[C@@H](C3CCCC3)C(=O)N(C)[C@H](C(=O)N(C)C)CC(=O)N(C)[C@@H](COC)C(=O)N[C@@H]([C@@H](C)CC)C(=O)N(C)CC(=O)N(C)[C@H]3C/C=C\CCN(C3=O)[C@@H](Cc3ccc(C(F)(F)F)cc3)C(=O)N(C)CC(=O)N[C@@H](CCc3cc(F)c(C(F)(F)F)c(F)c3)C(=O)N2C1` [PP1113], the “NRAS /KRAS” value in test [1] was “A (a compound having 10 or more and less than 20 is denoted as A)”. Moreover, the “HRAS /KRAS” value on HRAS wild-type protein was “A (a compound having 10 or more and less than 20 is denoted as A)”. Also, the IC50 in test [2] came out at 21.4 nM.

Consider `C=CC[C@H]1C(=O)N[C@@H]([C@@H](C)CC)C(=O)N(C)CC(=O)N(C)[C@H]2C/C=C\CCN(C2=O)[C@@H](Cc2ccc(C(F)(F)F)cc2)C(=O)N(C)CC(=O)N[C@@H](CCc2cc(F)c(C(F)(F)F)c(F)c2)C(=O)N2C[C@H](OCC)C[C@H]2C(=O)NC2(CCC2)C(=O)N(C)[C@@H](C2CCCC2)C(=O)N(C)[C@H](C(=O)N(C)C)CC(=O)N1C` [PP1114], for which the “NRAS /KRAS” value in test [1] was “A (a compound having 10 or more and less than 20 is denoted as A)”. The “HRAS /KRAS” value at HRAS wild-type protein is “A (a compound having 10 or more and less than 20 is denoted as A)”. Also, the IC50 in test [2] was determined as 12.2 nM.

What is called IC50 is the concentration that inhibits the measured activity by half.
